According to the CheMixHub viscosity set:
± gives the uncertainty stated by the source.

Test: xn = mol fraction of the nth substance listed

CCCCCCCCCCBr + ClC(Cl)(Cl)Cl
101 kPa
Conditions | viscosity [mPa·s]
297.75 K, x1 = 0.0484 | 0.9823 ± 0.021
297.75 K, x1 = 0.0969 | 1.057 ± 0.023
297.75 K, x1 = 0.1945 | 1.208 ± 0.026
297.75 K, x1 = 0.3918 | 1.52 ± 0.033
297.75 K, x1 = 0.5923 | 1.858 ± 0.04
297.75 K, x1 = 0.7944 | 2.106 ± 0.045
303.95 K, x1 = 0.0456 | 0.8918 ± 0.019
303.95 K, x1 = 0.0914 | 0.9574 ± 0.021
303.95 K, x1 = 0.1852 | 1.105 ± 0.024
303.95 K, x1 = 0.2667 | 1.2 ± 0.026
303.95 K, x1 = 0.5802 | 1.618 ± 0.035
303.95 K, x1 = 0.7825 | 1.864 ± 0.04
313.55 K, x1 = 0.0457 | 0.7792 ± 0.017
313.55 K, x1 = 0.092 | 0.8323 ± 0.018
313.55 K, x1 = 0.1856 | 0.948 ± 0.021
313.55 K, x1 = 0.378 | 1.171 ± 0.025
313.55 K, x1 = 0.5776 | 1.377 ± 0.03
313.55 K, x1 = 0.7832 | 1.562 ± 0.034

O=S(=O)([O-])[O-].[Mg+2] + O
viscosity [mPa·s]
Conditions | 308.15 K | 313.15 K | 323.15 K
101.3 kPa, x1 = 0.00112 | 0.74 ± 0.019 | 0.6745 ± 0.018 | 0.5642 ± 0.016
101.3 kPa, x1 = 0.002247 | 0.7982 ± 0.021 | 0.7215 ± 0.019 | 0.605 ± 0.017
101.3 kPa, x1 = 0.004484 | 0.8401 ± 0.022 | 0.76 ± 0.02 | 0.6392 ± 0.017
101.3 kPa, x1 = 0.008927 | 0.942 ± 0.024 | 0.8575 ± 0.022 | 0.733 ± 0.019
101.3 kPa, x1 = 0.0177 | 1.094 ± 0.027 | 0.955 ± 0.024 | 0.8368 ± 0.022
101.33 kPa, x1 = 0.000905 | 0.7405 ± 0.025 | 0.675 ± 0.023 | 0.5648 ± 0.02
101.33 kPa, x1 = 0.002718 | 0.7988 ± 0.027 | 0.722 ± 0.025 | 0.6054 ± 0.021
101.33 kPa, x1 = 0.00453 | 0.8405 ± 0.028 | 0.7605 ± 0.026 | –
101.33 kPa, x1 = 0.006344 | 0.889 ± 0.03 | 0.8025 ± 0.027 | 0.6695 ± 0.023
101.33 kPa, x1 = 0.008159 | 0.942 ± 0.031 | 0.858 ± 0.029 | 0.7335 ± 0.025

CCCCCCCCCCCC(=O)OCC + CCC1CCCCC1
viscosity [mPa·s], 100 kPa
Conditions | x2 = 0.1001 | x2 = 0.1999 | x2 = 0.3 | x2 = 0.3999 | x2 = 0.5001 | x2 = 0.5999 | x2 = 0.7 | x2 = 0.7999 | x2 = 0.9
293.15 K | 3.07 ± 0.067 | 2.768 ± 0.06 | 2.476 ± 0.054 | 2.193 ± 0.048 | 1.919 ± 0.042 | 1.663 ± 0.036 | 1.429 ± 0.031 | 1.219 ± 0.027 | 1.023 ± 0.022
298.15 K | 2.752 ± 0.06 | 2.485 ± 0.054 | 2.228 ± 0.049 | 1.977 ± 0.043 | 1.742 ± 0.038 | 1.519 ± 0.033 | 1.318 ± 0.029 | 1.134 ± 0.025 | 0.963 ± 0.021
303.15 K | 2.479 ± 0.054 | 2.251 ± 0.049 | 2.027 ± 0.044 | 1.808 ± 0.039 | 1.597 ± 0.035 | 1.402 ± 0.031 | 1.222 ± 0.027 | 1.057 ± 0.023 | 0.901 ± 0.02
308.15 K | 2.232 ± 0.049 | 2.036 ± 0.044 | 1.841 ± 0.04 | 1.651 ± 0.036 | 1.468 ± 0.032 | 1.296 ± 0.028 | 1.131 ± 0.025 | 0.981 ± 0.021 | 0.837 ± 0.018
313.15 K | 2.033 ± 0.044 | 1.86 ± 0.041 | 1.686 ± 0.037 | 1.516 ± 0.033 | 1.352 ± 0.03 | 1.197 ± 0.026 | 1.05 ± 0.023 | 0.913 ± 0.02 | 0.786 ± 0.017
318.15 K | 1.87 ± 0.041 | 1.716 ± 0.037 | 1.561 ± 0.034 | 1.406 ± 0.031 | 1.258 ± 0.027 | 1.119 ± 0.024 | 0.987 ± 0.022 | 0.864 ± 0.019 | 0.745 ± 0.016
323.15 K | 1.697 ± 0.037 | 1.562 ± 0.034 | 1.423 ± 0.031 | 1.289 ± 0.028 | 1.159 ± 0.025 | 1.036 ± 0.023 | 0.92 ± 0.02 | 0.81 ± 0.018 | 0.7 ± 0.015

Cc1ccc(C(C)C)c(O)c1 + CCCCCCCCCCCCCCCCCC(=O)O
100 kPa, x2 = 0.1
Conditions | viscosity [mPa·s]
318.15 K | 6.88 ± 0.07
323.15 K | 5.68 ± 0.05

S + ClC(Cl)Cl
298.15 K, 101 kPa
Conditions | viscosity [mPa·s]
x1 = 0.00673 | 0.5257 ± 0.014
x1 = 0.00998 | 0.5206 ± 0.014

Cl.N=C(N)N + O
viscosity [mPa·s], 101.3 kPa
Conditions | x1 = 0.0018 | x1 = 0.0045 | x1 = 0.0089 | x1 = 0.013 | x1 = 0.0177
298.15 K | 0.896 ± 0.025 | 0.901 ± 0.025 | 0.908 ± 0.025 | 0.915 ± 0.025 | 0.923 ± 0.025
308.15 K | 0.722 ± 0.024 | 0.727 ± 0.024 | 0.735 ± 0.024 | 0.742 ± 0.024 | 0.748 ± 0.024
318.15 K | 0.6 ± 0.024 | 0.604 ± 0.024 | 0.613 ± 0.024 | 0.621 ± 0.024 | 0.626 ± 0.024

CCCN(CCC)CCC + CCCCO
303.15 K, 101 kPa
Conditions | viscosity [mPa·s]
x1 = 0.01186 | 2.225 ± 0.015
x1 = 0.01943 | 2.201 ± 0.015
x1 = 0.03035 | 2.178 ± 0.014
x1 = 0.03999 | 2.157 ± 0.014
x1 = 0.05088 | 2.133 ± 0.014
x1 = 0.0617 | 2.112 ± 0.014
x1 = 0.07408 | 2.085 ± 0.014
x1 = 0.08019 | 2.074 ± 0.014
x1 = 0.08635 | 2.059 ± 0.014

Cc1ccc(C(C)C)c(O)c1 + CCCCCCCCCCCCCC(=O)O
100 kPa, x2 = 0.25
Conditions | viscosity [mPa·s]
313.15 K | 8.69 ± 0.1
318.15 K | 7.16 ± 0.09
323.15 K | 5.98 ± 0.07

CCOC(=O)CC(=O)OCC + O=C1CCCCC1
viscosity [mPa·s], 101 kPa
Conditions | x1 = 0.0713 | x1 = 0.1285 | x1 = 0.2155 | x1 = 0.3058 | x1 = 0.407 | x1 = 0.5085 | x1 = 0.6055 | x1 = 0.7125 | x1 = 0.8065 | x1 = 0.9118
303.15 K | 1.79 ± 0.039 | 1.76 ± 0.038 | 1.727 ± 0.037 | 1.694 ± 0.037 | 1.665 ± 0.036 | 1.631 ± 0.035 | 1.625 ± 0.035 | 1.635 ± 0.036 | 1.667 ± 0.036 | 1.706 ± 0.037
308.15 K | 1.623 ± 0.035 | 1.591 ± 0.034 | 1.553 ± 0.034 | 1.515 ± 0.033 | 1.487 ± 0.032 | 1.458 ± 0.032 | 1.454 ± 0.032 | 1.465 ± 0.032 | 1.497 ± 0.032 | 1.533 ± 0.033
313.15 K | 1.495 ± 0.032 | 1.463 ± 0.032 | 1.423 ± 0.031 | 1.386 ± 0.03 | 1.352 ± 0.029 | 1.333 ± 0.029 | 1.33 ± 0.029 | 1.341 ± 0.029 | 1.371 ± 0.03 | 1.406 ± 0.03

CC[N+](CC)(CC)CC.O=C([O-])CCCC(=O)O + O=S1(=O)CCCC1
101 kPa, x1 = 0.23
Conditions | viscosity [mPa·s]
303.15 K | 150.1
313.15 K | 90
323.15 K | 58.9

Cc1ccc(C(C)C)c(O)c1 + CCCCCCCCCC(=O)O
100 kPa, x2 = 0.5
Conditions | viscosity [mPa·s]
293.15 K | 15.28 ± 0.15
298.15 K | 12.16 ± 0.12
303.15 K | 9.86 ± 0.09
308.15 K | 8.12 ± 0.08
313.15 K | 6.78 ± 0.07
318.15 K | 5.74 ± 0.06
323.15 K | 4.91 ± 0.05

CCCCC(CC)COC(C)=O (configuration not stated) + CCCCCO
viscosity [mPa·s], 101.33 kPa
Conditions | x1 = 0.1041 | x1 = 0.2073 | x1 = 0.3002 | x1 = 0.4211 | x1 = 0.4987 | x1 = 0.6 | x1 = 0.7008 | x1 = 0.8092 | x1 = 0.9033
293.15 K | 3.692 ± 0.38 | 3.321 ± 0.35 | 3.019 ± 0.32 | 2.666 ± 0.29 | 2.462 ± 0.28 | 2.219 ± 0.26 | 2 ± 0.24 | 1.79 ± 0.22 | 1.625 ± 0.21
303.15 K | 2.68 ± 0.3 | 2.451 ± 0.28 | 2.262 ± 0.26 | 2.037 ± 0.24 | 1.905 ± 0.23 | 1.745 ± 0.22 | 1.599 ± 0.21 | 1.456 ± 0.2 | 1.342 ± 0.19
313.15 K | 2.119 ± 0.25 | 1.955 ± 0.24 | 1.818 ± 0.23 | 1.653 ± 0.21 | 1.556 ± 0.2 | 1.437 ± 0.2 | 1.328 ± 0.19 | 1.22 ± 0.18 | 1.134 ± 0.17
323.15 K | 1.255 ± 0.18 | 1.209 ± 0.18 | 1.169 ± 0.17 | 1.119 ± 0.17 | 1.087 ± 0.17 | 1.048 ± 0.16 | 1.01 ± 0.16 | 0.971 ± 0.16 | 0.938 ± 0.15

CCCN(CCC)CCC + CCC(C)O
303.15 K, 101 kPa
Conditions | viscosity [mPa·s]
x1 = 0.009049 | 2.448 ± 0.016
x1 = 0.02003 | 2.423 ± 0.016
x1 = 0.02982 | 2.4 ± 0.016
x1 = 0.04 | 2.379 ± 0.016
x1 = 0.05207 | 2.352 ± 0.016
x1 = 0.06138 | 2.332 ± 0.016
x1 = 0.06704 | 2.317 ± 0.015
x1 = 0.07865 | 2.291 ± 0.015
x1 = 0.09178 | 2.264 ± 0.015

CCCN(CCC)CCC + C1COCCO1
Conditions | viscosity [mPa·s]
303.15 K, 101 kPa, x1 = 0.0198 | 1.045 ± 0.0077
